# Experimental data published in patent publication US9918915B2, “Personal care compositions providing enhanced cooling sensation” (THE PROCTER & GAMBLE COMPANY, priority 2007, dated 2018).
# “And” between values parts separate entries of the source, which are not always exact repeats. Equal values may be shown once.
# Experiments:
# [1] = molecular target: human TRPM8 (Homo sapiens, UniProt Q7Z2W7); assay: FLIPR intracellular calcium flux (Fluo-4) in HEK cells stably transfected with human TRPM8; details: HEK cells with human TRPM8
# Sequence of human TRPM8 (Q7Z2W7 whole entry): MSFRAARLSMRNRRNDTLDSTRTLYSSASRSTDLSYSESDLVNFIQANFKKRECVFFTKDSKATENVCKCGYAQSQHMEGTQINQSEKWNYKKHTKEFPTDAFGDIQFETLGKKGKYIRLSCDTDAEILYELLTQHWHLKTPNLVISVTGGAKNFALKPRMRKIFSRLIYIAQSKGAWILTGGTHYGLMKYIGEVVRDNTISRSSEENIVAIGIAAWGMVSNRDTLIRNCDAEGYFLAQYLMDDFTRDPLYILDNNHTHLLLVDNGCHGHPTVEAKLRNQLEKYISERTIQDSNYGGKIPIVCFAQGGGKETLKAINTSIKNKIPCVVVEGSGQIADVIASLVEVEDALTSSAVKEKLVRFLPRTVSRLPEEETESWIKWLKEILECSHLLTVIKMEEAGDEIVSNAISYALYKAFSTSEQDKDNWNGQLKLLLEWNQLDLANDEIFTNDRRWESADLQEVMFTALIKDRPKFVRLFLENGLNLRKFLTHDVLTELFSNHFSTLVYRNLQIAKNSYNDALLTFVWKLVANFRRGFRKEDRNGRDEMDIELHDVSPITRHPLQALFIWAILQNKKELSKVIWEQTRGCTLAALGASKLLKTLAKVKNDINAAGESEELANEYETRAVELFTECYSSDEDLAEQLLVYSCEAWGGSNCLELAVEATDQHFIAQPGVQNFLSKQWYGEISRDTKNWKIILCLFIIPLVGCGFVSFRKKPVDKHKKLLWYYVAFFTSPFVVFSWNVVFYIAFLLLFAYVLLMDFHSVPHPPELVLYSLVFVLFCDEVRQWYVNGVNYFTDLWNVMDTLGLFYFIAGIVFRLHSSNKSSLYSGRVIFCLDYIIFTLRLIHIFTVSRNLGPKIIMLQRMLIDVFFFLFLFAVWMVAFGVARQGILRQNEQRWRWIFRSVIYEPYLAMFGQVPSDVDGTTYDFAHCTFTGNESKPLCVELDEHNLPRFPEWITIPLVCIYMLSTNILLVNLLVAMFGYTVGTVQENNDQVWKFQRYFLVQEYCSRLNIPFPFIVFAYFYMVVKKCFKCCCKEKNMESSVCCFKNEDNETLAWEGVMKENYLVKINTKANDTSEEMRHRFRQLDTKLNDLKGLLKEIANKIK
# [2] = test system: panelists; assay: Sensory evaluation of cooling sensation after brushing with coolant dentifrice followed by aqueous rinse with or without calcium; format: in vivo, human; set-up: key to Cooling Sensation Score: 0 = no cooling, 60 = intense cooling; 7.5 = definite cooling; details: for Cooling Sensation Score: 0-60 scale
# Method: Sensory evaluation studies of coolant activity were conducted using a methodology patterned after the techniques described in M. C. Meilgaard, et al., Sensory Evaluation Techniques, 4th Ed. (2007). In one study, a panel of 11 trained sensory experts evaluated cooling sensation experienced after brushing with a dentifrice containing coolant(s) followed by rinsing with an aqueous rinse containing a calcium ion source. Panelists brushed teeth with 1.5 grams of a test dentifrice (containing coolant) or control (no coolant) and then expectorated. After brush expectoration, panelists evaluated cooling intensity, assigning a number between 0 (no cooling) to 60 (intense cooling). Panelists then rinsed mouth with 15 ml. of an aqueous rinse (with or without calcium) and expectorated. After rinse expectoration, panelists evaluated cooling intensity according to the same 0 to 60 scale. Evaluations were conducted at 5, 15, 30, 45, 60 minute, etc. time points. At each evaluation, panelists were instructed to breathe in through pursed lips and evaluate overall cooling sensation. In this test, a numerical score of 7.5 indicates meaningful or definite cooling.
# [3] = concentration where the cooling effect could be clearly recognized; cited from earlier work
structure (smiles),measurement,setting,value
"CC1CCC(C(C)C)C(C(=O)Nc2ccc(CC#N)cc2)C1 (stereo not drawn) [Composition G-180, N-(4-cyanomethylphenyl)-ρ-menthanecarboxamide]",Average Fluorescence (n = 3),"[1]; 6.25 uM G-180 alone, Fluo-4",14901.88 and 17511.73 and 17474.37
same,Activation of the TRPM8 receptor (calcium ion flux vs. control),[1]; 6.25 uM,activated the TRPM8 receptor
same,Cooling Sensation Score,"[2]; 75 ppm coolant in paste, rinse Ca+2 0 ppm, 0 min.",21.1
same,Cooling Sensation Score,"[2]; 75 ppm coolant in paste, rinse Ca+2 0 ppm, 5 min.",23.7
same,Cooling Sensation Score,"[2]; 75 ppm coolant in paste, rinse Ca+2 0 ppm, 15 min.",22.9
same,Cooling Sensation Score,"[2]; 75 ppm coolant in paste, rinse Ca+2 0 ppm, 30 min.",15.0
same,Cooling Sensation Score,"[2]; 75 ppm coolant in paste, rinse Ca+2 0 ppm, 45 min.",11.0
same,Cooling Sensation Score,"[2]; 75 ppm coolant in paste, rinse Ca+2 0 ppm, 60 min.",5.8
same,Cooling Sensation Score,"[2]; 75 ppm coolant in paste, rinse Ca+2 271 ppm, 0 min.",17.5
same,Cooling Sensation Score,"[2]; 75 ppm coolant in paste, rinse Ca+2 271 ppm, 5 min.",18.3
same,Cooling Sensation Score,"[2]; 75 ppm coolant in paste, rinse Ca+2 271 ppm, 15 min.",20.7
same,Cooling Sensation Score,"[2]; 75 ppm coolant in paste, rinse Ca+2 271 ppm, 30 min.",16.8
same,Cooling Sensation Score,"[2]; 75 ppm coolant in paste, rinse Ca+2 271 ppm, 45 min.",13.3
same,Cooling Sensation Score,"[2]; 75 ppm coolant in paste, rinse Ca+2 271 ppm, 60 min.",8.4
same,Cooling Sensation Score,"[2]; 75 ppm coolant in paste, rinse Ca+2 542 ppm, 0 min.",18.8
same,Cooling Sensation Score,"[2]; 75 ppm coolant in paste, rinse Ca+2 542 ppm, 5 min.",25.0
same,Cooling Sensation Score,"[2]; 75 ppm coolant in paste, rinse Ca+2 542 ppm, 15 min.",29.2
same,Cooling Sensation Score,"[2]; 75 ppm coolant in paste, rinse Ca+2 542 ppm, 30 min.",24.4
same,Cooling Sensation Score,"[2]; 75 ppm coolant in paste, rinse Ca+2 542 ppm, 45 min.",18.6
same,Cooling Sensation Score,"[2]; 75 ppm coolant in paste, rinse Ca+2 542 ppm, 60 min.",14.1
same,Cooling Sensation Score,"[2]; 150 ppm coolant in paste, rinse Ca+2 0 ppm, 0 min.",16.7
same,Cooling Sensation Score,"[2]; 150 ppm coolant in paste, rinse Ca+2 0 ppm, 5 min.",16.0
same,Cooling Sensation Score,"[2]; 150 ppm coolant in paste, rinse Ca+2 0 ppm, 15 min.",25.7
same,Cooling Sensation Score,"[2]; 150 ppm coolant in paste, rinse Ca+2 0 ppm, 30 min.",19.5
same,Cooling Sensation Score,"[2]; 150 ppm coolant in paste, rinse Ca+2 0 ppm, 45 min.",10.0
same,Cooling Sensation Score,"[2]; 150 ppm coolant in paste, rinse Ca+2 0 ppm, 60 min.",1.5
same,Cooling Sensation Score,"[2]; 150 ppm coolant in paste, rinse Ca+2 271 ppm, 0 min.",12.1
same,Cooling Sensation Score,"[2]; 150 ppm coolant in paste, rinse Ca+2 271 ppm, 5 min.",22.5
same,Cooling Sensation Score,"[2]; 150 ppm coolant in paste, rinse Ca+2 271 ppm, 15 min.",26.0
same,Cooling Sensation Score,"[2]; 150 ppm coolant in paste, rinse Ca+2 271 ppm, 30 min.",17.1
same,Cooling Sensation Score,"[2]; 150 ppm coolant in paste, rinse Ca+2 271 ppm, 45 min.",11.2
same,Cooling Sensation Score,"[2]; 150 ppm coolant in paste, rinse Ca+2 271 ppm, 60 min.",0
same,Cooling Sensation Score,"[2]; 150 ppm coolant in paste, rinse Ca+2 542 ppm, 0 min.",15.1
same,Cooling Sensation Score,"[2]; 150 ppm coolant in paste, rinse Ca+2 542 ppm, 5 min.",21.9
same,Cooling Sensation Score,"[2]; 150 ppm coolant in paste, rinse Ca+2 542 ppm, 15 min.",27.2
same,Cooling Sensation Score,"[2]; 150 ppm coolant in paste, rinse Ca+2 542 ppm, 30 min.",24.8
same,Cooling Sensation Score,"[2]; 150 ppm coolant in paste, rinse Ca+2 542 ppm, 45 min.",18.2
same,Cooling Sensation Score,"[2]; 150 ppm coolant in paste, rinse Ca+2 542 ppm, 60 min.",8.0
same,Potentiating effect of calcium ions on cooling intensity and duration,[2]; at the levels of coolant and calcium used,particularly evident
same,Duration of cooling with calcium,[2]; dentifrice followed by calcium rinse,up to 60 minutes
same,Sensation described by panelists,[2]; particularly when used at higher levels,“burning” sensation
"CC1CCC(C(C)C)C(O)C1 (stereo not drawn) [Menthol, menthol]",Cooling threshold,[3],about 800 ppb
same,Cooling Sensation Score,"[2]; 1500 ppm coolant in paste, rinse Ca+2 542 ppm, 0 min.",18.0
same,Cooling Sensation Score,"[2]; 1500 ppm coolant in paste, rinse Ca+2 542 ppm, 5 min.",17.5
same,Cooling Sensation Score,"[2]; 1500 ppm coolant in paste, rinse Ca+2 542 ppm, 15 min.",4.4
same,Cooling Sensation Score,"[2]; 1500 ppm coolant in paste, rinse Ca+2 542 ppm, 30 min.",0
same,Cooling Sensation Score,"[2]; 1500 ppm coolant in paste, rinse Ca+2 542 ppm, 45 min.",0
same,Cooling Sensation Score,"[2]; 1500 ppm coolant in paste, rinse Ca+2 542 ppm, 60 min.",0
same,Calcium enhancing effect on cooling,[2]; 1500 ppm level of coolant in dentifrice,calcium enhancing effect was not observed
CC(C)[C@@H]1CC[C@@H](C)C[C@@H]1O [d-neomenthol],Cooling threshold,[3],"about 25,000 ppb"
CC(C)[C@H]1CC[C@H](C)C[C@H]1O [l-neomenthol],Cooling threshold,[3],"about 3,000 ppb"
